We go through 1 compound from publication PMC6940514 (Angewandte Chemie (International ed. in English), 2019).

For orientation: MIC means the least concentration at which growth counts as inhibited. The low end stands for a more susceptible organism, the high end for a less susceptible organism.

One assay has as its system S. pneumoniae. Kind of assay: Antibacterial activity. The conditions noted are these: Streptococcus pneumoniae. The class given is cell-based.
Another assay has as its system Gram-negative bacteria. The conditions noted are these: general statement, no reference given; cited from earlier work.
The subject of the next assay is S. pyogenes. The assay can be described thus: Antibacterial activity. The note with it: Streptococcus pyogenes. It counts as cell-based.

Consider `C=C(NC(=O)C(=C)NC(=O)c1csc(C2=N[C@@H]3c4csc(n4)[C@H]4NC(=O)c5csc(n5)[C@H]([C@](C)(O)[C@@H](C)O)NC(=O)[C@H]5CSC(=N5)/C(=C/C)NC(=O)[C@H]([C@@H](C)O)NC(=O)c5csc(n5)[C@]3(CC2)NC(=O)[C@H](C)NC(=O)C(=C)NC(=O)[C@H](C)NC(=O)[C@H]([C@@H](C)CC)N[C@@H]2C=Cc3c([C@H](C)O)cc(nc3[C@H]2O)C(=O)O[C@@H]4C)n1)C(N)=O` [Compound 1, Thiostrepton], for which the MIC with S. pneumoniae and in the assay on S. pyogenes was less than 1 ng/mL throughout. In addition, in the assay with Gram-negative bacteria, the “activity against Gram-negative bacteria” value was “inactive”.
